From patent US4490365A, “Defleecing compounds” (Commonwealth Scientifique & Industrial Research Organization, priority 1980, dated 1984)

Experiments:
new born mice = conditions: injected into new born mice; cited from earlier work
[1] = Radioimmunoassay of plasma EGF correlated with plucking force; format: in vivo, sheep
Method: During the course of the above trails blood samples were taken from selected animals at approximately 1/2 hour intervals after the start of treatment. A correlation between radioimmunoassay determinations of plasma concentrations EGF and forces subsequently required to pluck wool from the skin of the sheep, pointed to the desirability of establishing a plasma concentration EGF of at least about 10 ng/ml for a period of at least about 15 hrs. in order to modify wool growth sufficiently for the fleece to be easily removed by hand.

Adult Merino wethers [2] = test: Subcutaneous infusion in sheep: staple plucking force and defleecing result; format: in vivo; conditions: for Plucking Force day 7: day 7 (in day 9 column)
Excerpt: One way of defining the extent of wool fibre weakening is by reference to the plucking force (Newtons/ktex, or N/ktex) required to remove the fleece. Methods for making this measurement are described by A. J. Gordon, Aust. J. of Exp. Agric. Anim. Husb. 20, 40-49, and Moore et al, Search. 12, 128-129.
Adult Merino wethers were housed under cover in individual pens or metabolic cages. The animals were offered a maintenance ration of 600 g of a pelleted mixture of 60% lucerne and 40% oats as one meal daily. Drinking water was provided ad lib.
(§1) Wethers were prepared for infusion experiments by the insertion of a polythene catheter below the skin so that the orifice lay near the centre of a 10×10 cm tattooed side on the right midside region of the body. The defleecing agent was dissolved in sterile saline solution and infused using a Harvard pump delivering a volume of 0.030 ml/min. Control animals were infused with saline solution alone.

Adult Merino wethers [3] = test: Wool harvested from tattooed midside area after subcutaneous infusion (wool growth); format: in vivo, sheep
Method: as §1
Recovery to preinfusion growth levels was observed 2 weeks later. At lower dose levels wool growth inhibition was noticeably less, the maximum recorded effect being about 80% inhibition of wool growth. This occurred about 4 weeks after infusion, but normal wool growth was attained about 2 weeks later.

[4] = sheep 1, 36.3 kg, EGF dose total 27.5, 1.86 mg/kg^0.75, s.c. infusion 66 hr
[5] = sheep 3, 41.0 kg, EGF dose total 11.7, 0.74 mg/kg^0.75, s.c. infusion 28 hr
[6] = sheep 4, EGF dose total 11.7, s.c. infusion 28 hr
[7] = sheep 5, EGF dose total 10.0, s.c. infusion 28 hr
[8] = sheep 7, 49.0 kg, EGF dose total 5.8, 0.32 mg/kg^0.75, s.c. infusion 28 hr
[9] = sheep 8, 47.6 kg, EGF dose total 4.7, 0.26 mg/kg^0.75, s.c. infusion 28 hr
[10] = sheep 9, 47.4 kg, EGF dose total 4.7, 0.26 mg/kg^0.75, s.c. infusion 28 hr
[11] = sheep 10, 42.0 kg, EGF dose total 4.7, 0.28 mg/kg^0.75, s.c. infusion 26.5 hr
[12] = sheep 12, 45.4 kg, EGF dose total 2.9, 0.17 mg/kg^0.75, s.c. infusion 28 hr
[13] = sheep 13, 30.6 kg, EGF dose total 2.4, 0.19 mg/kg^0.75, s.c. infusion 25 hr
[14] = sheep 14, 29.4 kg, EGF dose total 2.0, 0.16 mg/kg^0.75, s.c. infusion 26.5 hr
[15] = sheep 16, EGF dose total 1.0, s.c. infusion 28 hr
[16] = sheep 17, 40.8 kg, EGF dose total 1.0, 0.06 mg/kg^0.75, s.c. infusion 28 hr
[17] = sheep 19, 31.8 kg, EGF dose total 5.0, 0.37 mg/kg^0.75, s.c. infusion 7 hr
[18] = sheep 20, 41.0 kg, EGF dose total 5.0, 0.31 mg/kg^0.75, s.c. infusion 7 hr
[19] = sheep 21, 41.9 kg, EGF dose total 5.0, 0.30 mg/kg^0.75, s.c. infusion 7 hr
[20] = sheep 22, 45.0 kg, EGF dose total 5.0, 0.29 mg/kg^0.75, s.c. infusion 7 hr
[21] = sheep 23, 50.6 kg, EGF dose total 5.0, 0.26 mg/kg^0.75, s.c. infusion 7 hr
[22] = sheep 24, 28.6 kg, EGF dose total 2.4, 0.20 mg/kg^0.75, s.c. infusion 48 hr
[23] = sheep 25, 28.4 kg, EGF dose total 2.4, 0.19 mg/kg^0.75, s.c. infusion 48 hr
[24] = sheep 26, 42.0 kg, EGF 1-45 dose total 4.9, 0.30 mg/kg^0.75, s.c. infusion 26.5 hr
[25] = sheep 27, EGF 1-45 dose total 1.0, s.c. infusion 28 hr

## EGF: polypeptide of 53 amino acids prepared from the submaxillary glands of adult male mice
New born mice
  Effect on body growth rate and hair growth: can inhibit body growth rate and hair growth
[1]; at plasma EGF of at least about 10 ng/ml
  Period of plasma concentration needed for fleece to be easily removed by hand: at least 15 hrs
[1]; radioimmunoassay, correlated with plucking force
  Plasma concentration EGF needed for fleece to be easily removed by hand: at least 10 ng/ml
Adult Merino wethers [2]; s.c. infusion at rates as low as 0.16 mg EGF/kg^0.75
  Fleece removal: consistently allowed fleece to be easily removed
Adult Merino wethers [2]; s.c. infusion of amounts greater than about 0.25 mg EGF/kg^0.75
  Time to casting of the whole fleece: ≤ 7 days
Adult Merino wethers [2]; s.c. infusions less than 0.25 mg EGF/kg^0.75
  Fleece result: fleeces were retained but staples could easily be removed by hand
Adult Merino wethers [2]; [4]
  Plucking Force day 1: 12.2 N/ktex
  Plucking Force day 9: 0.1 N/ktex
  Result: Fleece cast
Adult Merino wethers [2]; [5]
  Plucking Force day 1: 8.9 N/ktex
  Plucking Force day 9: 0 N/ktex
  Result: Fleece cast
Adult Merino wethers [2]; [6]
  Plucking Force day 1: 3.4 N/ktex
  Result: Fleece cast
  Plucking Force day 7: 0.3 N/ktex
Adult Merino wethers [2]; [7]
  Plucking Force day 1: 4.1 N/ktex
  Result: Fleece cast
  Plucking Force day 7: 0.2 N/ktex
Adult Merino wethers [2]; [8]
  Plucking Force day 1: 7.5 N/ktex
  Plucking Force day 9: 0.4 N/ktex
  Result: Fleece cast
Adult Merino wethers [2]; [9]
  Plucking Force day 1: 21.3 N/ktex
  Plucking Force day 9: 2.1 N/ktex
  Result: Fleece cast
Adult Merino wethers [2]; [10]
  Plucking Force day 1: 12.5 N/ktex
  Plucking Force day 9: 1.4 N/ktex
  Result: Fleece cast
Adult Merino wethers [2]; [11]
  Plucking Force day 1: 7.6 N/ktex
  Plucking Force day 9: 0.1 N/ktex
  Result: Fleece cast
Adult Merino wethers [2]; [12]
  Plucking Force day 1: 6.6 N/ktex
  Plucking Force day 9: 0.6 N/ktex
  Result: Weakened fibre
Adult Merino wethers [2]; [13]
  Plucking Force day 1: 11.3 N/ktex
  Plucking Force day 9: 2.1 N/ktex
  Result: Weakened fibre
Adult Merino wethers [2]; [14]
  Plucking Force day 1: 9.3 N/ktex
  Plucking Force day 9: 1.5 N/ktex
  Result: Weakened fibre
Adult Merino wethers [2]; [15]
  Plucking Force day 1: 5.5 N/ktex
  Plucking Force day 9: 3.6 N/ktex
  Result: Weakened fibre
Adult Merino wethers [2]; [16]
  Plucking Force day 1: 10.6 N/ktex
  Plucking Force day 9: 8.7 N/ktex
  Result: No effect
Adult Merino wethers [2]; [17]
  Plucking Force day 1: 7.0 N/ktex
  Plucking Force day 9: 0.4 N/ktex
  Result: Fleece cast
Adult Merino wethers [2]; [18]
  Plucking Force day 1: 17.9 N/ktex
  Plucking Force day 9: 1.0 N/ktex
  Result: Fleece cast
Adult Merino wethers [2]; [19]
  Plucking Force day 1: 11.4 N/ktex
  Plucking Force day 9: 0.8 N/ktex
  Result: Fleece cast
Adult Merino wethers [2]; [20]
  Plucking Force day 1: 9.0 N/ktex
  Plucking Force day 9: 1.0 N/ktex
  Result: Fleece cast
Adult Merino wethers [2]; [21]
  Plucking Force day 1: 12.7 N/ktex
  Plucking Force day 9: 2.8 N/ktex
  Result: Fleece cast
Adult Merino wethers [2]; [22]
  Plucking Force day 1: 14.8 N/ktex
  Plucking Force day 9: 3.2 N/ktex
  Result: Weakened fibre
Adult Merino wethers [2]; [23]
  Plucking Force day 1: 11.7 N/ktex
  Plucking Force day 9: 2.4 N/ktex
  Result: Weakened fibre
Adult Merino wethers [3]; 0.74 and 1.86 mg EGF/kg^0.75, 2 weeks after the start of infusion
  Wool production: declined to near zero
Adult Merino wethers [3]; 0.74 and 1.86 mg EGF/kg^0.75, counted after the near-zero point (2 weeks after start)
  Time to recovery to preinfusion growth levels: 2 weeks
Adult Merino wethers [3]; lower dose levels
  Time of maximum wool growth inhibition after infusion: about 4 weeks
  Time to normal wool growth after maximum inhibition: about 2 weeks
Adult Merino wethers [3]; lower dose levels (below 0.74 mg EGF/kg^0.75)
  Maximum inhibition of wool growth: about 80%

## EGF 1-45: derivative prepared by tryptic digestion of the intact EGF peptide (NSYPGCPSSYDGYCLNGGVCMHIESLDSYTCNCVIGYSGDRCQTR; not fully specified; Epidermal growth factor; UniProt P01132 977-1021, looked up, fragment)
Adult Merino wethers [2]; s.c. infusion
  Infusion results compared with EGF: closely similar results
Adult Merino wethers [2]; [24]
  Plucking Force day 1: 5.6 N/ktex
  Plucking Force day 9: 0.3 N/ktex
  Result: Fleece cast
Adult Merino wethers [2]; [25]
  Plucking Force day 1: 4.1 N/ktex
  Plucking Force day 9: 3.1 N/ktex
  Result: Weakened fibre
